{
  "source": "patent US20070232813A1",
  "about": "“Substituted Cyclohexadienals - Syntheses and Applications” (priority 2006, published 2007)",
  "origin": "cited, not measured here",
  "key": {"Roseobacter sp.": {"test_system": "Roseobacter sp.", "conditions": "at 100 μg, agar diffusion assay"}, "Sulfitobacter sp.": {"test_system": "Sulfitobacter sp.", "conditions": "at 100 μg, agar diffusion assay"}},
  "data": [
    {"smiles": "CC(C)=CCCC1=CC=C(C=O)C(C)(CCC=C(C)C)C1", "note": "(centres unmarked) [citral dimer B, 6-Methyl-4,6-bis-(4-methyl-pent-3-enyl)-cyclohexa-1,3-dienecarbaldehyde]", "values": [
      {"measurement": "inhibition (anti-bacterial activity against Roseobacter sp.)", "setting": "Roseobacter sp.", "result": 0.5, "unit": "cm"},
      {"measurement": "inhibition (anti-bacterial activity against Sulfitobacter sp.)", "setting": "Sulfitobacter sp.", "result": 1.0, "unit": "cm"}
    ]}
  ]
}
